Data taken from patent publication US9796753B2, “N-substituted indenoisoquinolines and syntheses thereof” (Purdue Research Foundation, priority 2005, dated 2017).
Like-named read-outs stand apart in the source and are kept apart here.

Key:
Format in all cases: cell-based
breast MDA-MB-435 = assay: COMPARE screening (NCI human cancer cell line screen), cytotoxicity GI50
[1] = system: all human cancer cell lines successfully tested; assay: NCI screen mean graph midpoint (MGM) for growth inhibition; conditions: Table 1; average GI50 of all cell lines tested (approximately 55), test range 10^−8 to 10^−4 molar
Experimental: COMPARE screening. The compounds described herein were examined for antiproliferative activity against the human cancer cell lines in the National Cancer Institute screen (COMPARE screening), in which the activity of each compound was evaluated with approximately 55 different cancer cell lines of diverse tumor origins. […] Therefore, the MGM value represents an overall assessment of toxicity of the compound across numerous cell lines.
(§1) Selected compounds were tested for antiproliferative activity in the National Cancer Institute's developmental therapeutics assay 60 cell line screen (NCI60). The cells were incubated with the tested compounds at 100, 10, 1, 0.1, and 0.01 μM concentrations for 48 h before treatment with sulforhodamine B dye. Optical densities were recorded, and their ratios relative to that of the control were plotted as percentage growth against the log 10 of the tested compound concentrations.
The cytotoxicities of the compounds to cultured cancer cells were measured in the National Cancer Institute's 60 cell line assay (a.k.a. NCI-60).

CNS SF-539 = assay: COMPARE screening (NCI human cancer cell line screen), cytotoxicity GI50
Experimental: as §1

renal SN12C = assay: as above
Experimental: as §1

melanoma UACC-62 = assay: as above
Experimental: as §1

lung HOP-62 = assay: as above
Experimental: as §1

prostate DU-145 = assay: as above
Experimental: as §1

colon HCT-116 = assay: as above
Experimental: as §1

ovarian OVCAR-3 = assay: as above
Experimental: as §1

[2] = Homo sapiens, MDA-MB-435, read-out: cytotoxicity (GI50) breast MDA-MB-435
[3] = Homo sapiens, CNSSF-539, read-out: cytotoxicity (GI50) CNS SF-539
[4] = Homo sapiens, SN12C, read-out: cytotoxicity (GI50) renal SN12C
[5] = Homo sapiens, UACC-62, read-out: cytotoxicity (GI50) melanoma UACC-62
[6] = Homo sapiens, HOP-62, read-out: cytotoxicity (GI50) lung HOP-62
[7] = Homo sapiens, DU-145, read-out: cytotoxicity (GI50) prostate DU-145
[8] = Homo sapiens, HCT-116, read-out: cytotoxicity (GI50) colon HCT-116
[9] = Homo sapiens, OVCAR-3, read-out: cytotoxicity (GI50) ovarian OVCAR-3

Structure (SMILES) | GI50 (breast MDA-MB-435; [2]) [nM] | MGM (mean GI50 across cell lines) [1] [nM] | GI50 (CNS SF-539; [3]) [nM] | GI50 (renal SN12C; [4]) [nM] | GI50 (melanoma UACC-62; [5]) [nM] | GI50 (lung HOP-62; [6]) [nM] | GI50 (prostate DU-145; [7]) [nM] | GI50 (colon HCT-116; [8]) [nM] | GI50 (ovarian OVCAR-3; [9]) [nM] | GI50 (breast MDA-MB-435) [nM] | GI50 (CNS SF-539) [nM] | GI50 (renal SN12C) [nM] | GI50 (melanoma UACC-62) [nM] | GI50 (lung HOP-62) [nM] | GI50 (prostate DU-145) [nM] | GI50 (colon HCT-116) [nM] | GI50 (ovarian OVCAR-3) [nM] | MGM (mean graph midpoint for growth inhibition) [1] [µM]
O=C1c2ccccc2-c2oc(=O)c3ccccc3c21 [Compound 4d, Benz[d]indeno[1,2-b]pyran-5,11-dione] | > 100000 | >100000 | > 100000 | > 100000 | > 100000 | > 100000 | > 100000 | > 100000 | > 100000 |  |  |  |  |  |  |  |  | 
CC(C)(C)OC(=O)NCCCCCCCCCCn1c2c(c3ccccc3c1=O)C(=O)c1ccccc1-2 [Compound 5ai, 6-(10′-tert-BOC-Aminodecyl)-5,6-dihydro-5,1-dioxo-11H-indeno[1,2-c]isoquinoline] |  | 52500 |  |  |  |  |  |  |  | > 100000 | 42700 | > 100000 | 43600 | 28800 | 97700 | 60300 | > 100000 | 
CC(C)(C)OC(=O)NCCCCCCCCCCCn1c2c(c3ccccc3c1=O)C(=O)c1ccccc1-2 [Compound 5aj, 6-(11′-tert-BOC-Anminoundecyl)-5,6-dihydro-5,11-dioxo-11H-indeno[1,2-c]isoquinoline] |  |  |  |  |  |  |  |  |  | > 100000 | 29500 | > 100000 | 24000 | 20900 | 91200 | 35500 | 70800 | 42.6 ± 5.35
CC(C)(C)OC(=O)NCCCCCCCCCCCCn1c2c(c3ccccc3c1=O)C(=O)c1ccccc1-2 [Compound 5ak, 6-(12′-tert-BOC-Aminododecyl)-5,6-dihydro-5,1-dioxo-11H-indeno[1,2-c]isoquinoline] |  | 51300 |  |  |  |  |  |  |  | > 100000 | 20400 | > 100000 | 27500 | 32400 | 91200 | > 100000 | > 100000 | 
Cl.NCCn1c2c(c3ccccc3c1=O)C(=O)c1ccccc1-2 [Compound 5al] |  |  |  |  |  |  |  |  |  | 920 | 210 | 490 | 920 | 620 | 760 | 270 | 710 | 0.530 ± 0.320
Cl.NCCCn1c2c(c3ccccc3c1=O)C(=O)c1ccccc1-2 [Compound 5am] |  |  |  |  |  |  |  |  |  | 780 | 250 | 160 | 260 | 200 | 220 | 180 | 1380 | 0.32 ± 0.23
Cl.NCCCCn1c2c(c3ccccc3c1=O)C(=O)c1ccccc1-2 [Compound 5an] |  |  |  |  |  |  |  |  |  | 840 | 100 | 40 | 50 | 80 | 10 | 100 | 520 | 0.16 ± 0.01
Cl.NCCCCCn1c2c(c3ccccc3c1=O)C(=O)c1ccccc1-2 [Compound 5ao, 6-(5-Aminopentyl)-5,6-dihydro-5,11-diketo-11H-indeno[1,2-c]isoquinoline Hydrochloride] | 1350 |  | 871 | 398 | 1350 | 288 | 347 | 200 | 708 |  |  |  |  |  |  |  |  | 0.471 ± 0.054
Cl.NCCCCCCn1c2c(c3ccccc3c1=O)C(=O)c1ccccc1-2 [Compound 5ap, 6-(6-Aminohexyl)-5,6-dihydro-5,11-diketo-11H-indeno[1,2-c]isoquinoline Hydrochloride] | 2040 | 1320 | 1230 | 1320 | 1620 | 1290 | 603 | 912 | 2000 |  |  |  |  |  |  |  |  | 
CN(C)CCCn1c2c(c3cc4c(cc3c1=O)OCO4)C(=O)c1ccccc1-2 [Compound 5b] |  | 525 |  |  |  |  |  |  |  | 3020 | 2690 | 23 | 300 | < 10 | 2040 | < 10 | 2630 | 
COc1ccc2c(c1)C(=O)c1c-2n(CCCCl)c(=O)c2cc([N+](=O)[O-])ccc12 [Compound 5ba] |  |  |  |  |  |  |  |  |  | 3240 | 27 | < 10 | < 10 | 295 | 36 | 794 | 3390 | 0.178 ± 0.012
COc1ccc2c(c1)C(=O)c1c-2n(CCCN=[N+]=[N-])c(=O)c2ccccc12 [Compound 5bf] |  | 38900 |  |  |  |  |  |  |  | 64600 | 44700 | > 100000 | 75900 | 33900 | 61700 | 26900 | 52500 | 
COc1ccc2c(c1)C(=O)c1c-2n(CCCN2CCOCC2)c(=O)c2ccccc12 [Compound 5bk] |  |  |  |  |  |  |  |  |  | 4680 | 1950 | 4070 | 1580 | 1410 | 2290 | 1260 | 2690 | 2.70 ± 0.125
Cl.O=C1c2ccccc2-c2c1c1ccc([N+](=O)[O-])cc1c(=O)n2CCCNCCO [Compound 5bl] |  |  |  |  |  |  |  |  |  | 1070 | > 100000 | 229 | 200 | 31 | > 100000 | 27 | 1350 | 0.296 ± 0.067
COc1ccc2c(c1)C(=O)c1c-2n(CCCNCCO)c(=O)c2ccccc12.Cl [Compound 5bn] |  |  |  |  |  |  |  |  |  | 389 | 112 | 158 | 550 | 26 | 55 | 44 | 417 | 0.124 ± 0.014
COc1ccc2c(c1)C(=O)c1c-2n(CCCN(C)C)c(=O)c2cc([N+](=O)[O-])ccc12 [Compound 5bp] |  |  |  |  |  |  |  |  |  | < 10 | < 10 | < 10 | < 10 | < 10 | < 10 | < 10 | 28 | 0.020 ± 0.001
COc1ccc2c(c1)C(=O)c1c-2n(CCCN(C)C)c(=O)c2ccccc12 [Compound 5bq] |  |  |  |  |  |  |  |  |  | 617 | 240 | 245 | 1000 | 78 | 257 | 102 | 427 | 0.300 ± 0.072
